Data on one molecule can be found in patent US20250041460A1, “LANTHANIDE-BASED CONTRAST AGENTS HAVING IMPROVED STABILITY AND METHODS FOR THEIR PRODUCTION AND PURIFICATION” (Inventure, LLC, priority 2023, published 2025).

This data set is described as follows: Metastables test: challenge with cation exchange resin (Purolite C150), UV 274 nm peak. Format: physicochemical. The text has this:
FIGS. 3 and 4 show the relative and absolute stability of Applicant's disclosed TSA′ Gd Product as compared to two commercially available and frequently used MRI contrast agents Dotarem® and Clariscan®. The data shown in FIGS. 3 and 4 were obtained as follows. Exposing the product to a cation retaining resin, any free gadolinium ions in the sample are retained on the resin. Since the free gadolinium ions are continually removed, the equilibrium that would normally slow the decomposition of gadolinium DOTA metastable compounds is shifted toward decomposition. […] Gadolinium DOTA complex treated with xylenol orange has a characteristic peak at 274 nm in the ultraviolet spectrum. The amount of metastable gadolinium DOTA complex in the mixture can be inferred by measuring the decrease in this peak height with an ultraviolet spectrometer.
The test procedure used to obtain the foregoing results was as follows: • 1. Expose the resin to water for 24 hours. • 2. Measure the 274 nm peak height of the sample just prior to exposure to resin. This is the initial time point. • 3. Combine one equivalent of resin with one equivalent of the sample and agitate. • 4. […]
A metastable test is used to quantify ideal twisted square antiprismatic (TSA′) locked structures (TSA′ specification is greater than 99.5%). […]
The UV spectra for the time points were acquired over a range of 250-350 nm. The absorbance for the peak at 274 nm was corrected for changes in baseline by linearly interpolating the baseline from before and after the group of peaks around 274 nm (i.e., approximately from 270 to 280 nm) and subtracting the interpolated baseline value at 274 nm from the absorbance of the 274 nm peak maximum.
For the analysis of a time course experiment, it is useful to plot the corrected absorbances of the 274 nm peak as a percentage of the corrected absorbances of the 274 nm peak at the first time point versus time. […]

[1] abbreviates: after resin purification process of Example 7.

Consider `CNC[C@H](O)[C@@H](O)[C@H](O)[C@H](O)CO.O=C([O-])CN1CCN(CC(=O)[O-])CCN(CC(=O)O)CCN(CC(=O)[O-])CC1.[Gd+3]` [TSA′ Gd Product, gadoterate meglumine], for which, under setting [1], the “ideal TSA' cages” value is given as 99.98% and the “non ideal (defective) cages” value is 200 PPM. The “stability compared to Dotarem and Clariscan (FIGS. 3-5)” value (cation retaining resin, 274 nm peak height, up to 120 minutes) is given as “more stable”.
